The source of these data is ChEMBL document CHEMBL1152088, “Activated ketones as potent reversible inhibitors of interleukin-I converting enzyme” (Bioorg Med Chem Lett, 1994).

For this assay, the target named is T1, Caspase-1 (Homo sapiens, UniProt P29466).
T1 sequence (P29466 whole entry): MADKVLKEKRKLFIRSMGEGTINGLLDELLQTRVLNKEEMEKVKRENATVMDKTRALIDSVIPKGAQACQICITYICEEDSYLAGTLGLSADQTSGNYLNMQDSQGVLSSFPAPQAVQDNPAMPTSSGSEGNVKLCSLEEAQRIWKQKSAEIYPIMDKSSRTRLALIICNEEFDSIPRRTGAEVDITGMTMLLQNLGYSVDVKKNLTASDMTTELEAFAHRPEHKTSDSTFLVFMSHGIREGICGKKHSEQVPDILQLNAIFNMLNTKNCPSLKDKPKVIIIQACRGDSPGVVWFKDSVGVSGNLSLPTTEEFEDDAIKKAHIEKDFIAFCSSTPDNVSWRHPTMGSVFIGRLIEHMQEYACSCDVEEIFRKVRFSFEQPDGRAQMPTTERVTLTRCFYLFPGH
The assay is described as follows: Tested for inhibition of cysteine proteinase IL-1 beta converting enzyme (ICE).

For orientation: Ki means the dissociation constant of the complex between target and ligand, obtained from inhibition or displacement. With `CC(C)[C@H](NC(=O)CCc1ccccc1)C(=O)N[C@@H](C)C(=O)NC(CC(=O)O)C(=O)CCCCc1ccccc1` (stereo partly drawn), the affinity, expressed as Ki, was 100 nM. That is a sub-micromolar value.
Next, `CC(C)[C@H](NC(=O)CCc1ccccc1)C(=O)N[C@@H](C)C(=O)NC(CC(=O)O)C(=O)CNCCc1ccccc1` (stereo partly drawn): 4.7 nM; `CC(C)[C@H](NC(=O)CCc1ccccc1)C(=O)N[C@@H](C)C(=O)NC(CC(=O)O)C(=O)C[S+]([O-])CCCc1ccccc1` (stereo partly drawn): 27 nM.
Under `CC(C)[C@H](NC(=O)CCc1ccccc1)C(=O)N[C@@H](C)C(=O)NC(CC(=O)O)C(=O)CN(CCc1ccccc1)Cc1ccccc1` (stereo partly drawn) stands 60 nM; under `CC(C)[C@H](NC(=O)CCc1ccccc1)C(=O)N[C@@H](C)C(=O)NC(CC(=O)O)C(=O)CSCCCc1ccccc1` (stereo partly drawn), 11 nM; under `CC(C)[C@H](NC(=O)CCc1ccccc1)C(=O)N[C@@H](C)C(=O)NC(CC(=O)O)C(=O)CS(=O)(=O)CCCc1ccccc1` (stereo partly drawn), 113 nM.
Next, `CC(C)[C@H](NC(=O)CCc1ccccc1)C(=O)N[C@@H](C)C(=O)NC(CC(=O)O)C(=O)COC(=O)CCc1ccccc1` (stereo partly drawn): 2.7 nM.
In turn, `CC(C)[C@H](NC(=O)CCc1ccccc1)C(=O)N[C@@H](C)C(=O)NC(CC(=O)O)C(=O)COC(=O)NCc1ccccc1` (stereo partly drawn) showed a Ki of 120 nM.
